# Source: patent US8088889B2, “Teneurin c-terminal associated peptides (TCAP) and uses thereof” (priority 2002, dated 2012)
# “Also recorded” adds a separate entry of the source. Ends that are not written are not given here.
# How the values were obtained:
# rats = assay: Acoustic startle response after TCAP-1 injection; assay type: in vivo, rat
# Source text: Male Wistar rats (250-275 g), were surgically implanted with cannulae (23 gauge) bilaterally into the basolateral nuclei of the amydala (AP −2.8, ML +/−5.0, DV −7.2 mm, from bregma). One week later, the animals were habituated to the acoustic startle reflex (ASR) chambers (MED Associates, grid rod cage measuring 7.5″×3.6″×4.2″), consisting of 25 trials of 120 dB stimuli presented randomly with an inter-stimulus interval of 55-65 seconds, duration of 30 msecs and frequency of 5000 Hz. The same stimulus conditions were used for test days, which consisted of a 25 trial baseline, injection with mouse TCAP-1 (with amidation signal)[SEQ. ID. NO. 40] or vehicle (0.25 μl/side, flow rate 0.5 μl/min), and testing for a further 60 trials post-drug. Each rat received vehicle treatment on the first test day then TCAP-1 (e.g. mouse TCAP-1) in a random and counter balanced fashion in subsequent test days, spaced 48 h apart. On the final test day, all rats again received vehicle treatment. Following histological analysis of cannulae placements, the data of eight rats was retained for statistical analysis.
# From the data, rats were divided into high and low anxiety groups depending upon their treatment/baseline ratio for the vehicle. Animals that scored less than one were considered low anxiety, those scoring more than one were considered high anxiety. There were four animals in each anxiety group.
# Gn11 cells [1] = assay: cAMP accumulation in Gn11 immortalized neurons (Example 12); assay type: cell-based, mouse; conditions: for cAMP accumulation at 1 nM (in words): FIG. 25A/B
# Procedure: (§1) Gn11 immortalized neurons were cultured as previously reported (Tellam et al., 1998) Direct cAMP measurements were performed with the nonacetylated version of a commercial kit (Assay Designs, Ann Arbor, Mich.). After starved by serum-free DMEM for 1 hr and replaced with fresh DMEM without serum, cells were treated for 15 min with TCAP, urocortin or vehicle±CRFR1 antagonist PD171729 in the continued presence of forskolin (1_M) and IBMX (100_M. Protein assays: Total protein was determined using the BCA protein assay method (Pierce Co). MTT Assays: Gn11 cells were seeded into 96-well plates and cultured in full serum DMEM until the cells were 30% confluent. Vehicle, 1 nM, 10 nM or 100 nM TCAP-1 were added into each group (n=8). (FIG. 25A) The MTT assay (Sigma Chemicals) was performed at 0, 6, 12, 24 and 48 hours. Flow Cytometry: DNA content of the Gn11 cells was quantified by staining with propridium iodide and analyzed on a FACSCAN flow cytometer (Beckman Instruments).
# Gn11 cells [2] = assay: Total protein, BCA protein assay, Gn11 cells; assay type: cell-based, mouse; conditions: 1, 10 and 100 nM, after 120 minutes
# Procedure: as §1
# Gn11 cells [3] = assay: MTT assay, Gn11 cells; assay type: cell-based, mouse; conditions: 48 hours
# Procedure: as §1
# Gn11 cells [4] = assay: Flow cytometry DNA content analysis, Gn11 cells; assay type: cell-based, mouse; conditions: after 24 hours
# Procedure: as §1
# N38 hypothalamic cells = assay: Microarray gene expression in N38 hypothalamic cells; assay type: cell-based, mouse; conditions: 1 nM
# Procedure: Total RNA (TRNA) was isolated from 3 independent treated and untreated N38 hypothalamic cell cultures, pooled (to reduce the noise), utilizing Trizol Reagent (GIBCO/BRL) following the manufacturer's protocol. The quality of total RNA was assessed using an Agilent 2100 Bioanalyzer (version A.02.01S1232, Agilent Technologies). Only RNA with the OD ratio of 1.99-2.0 at 260/280 was used.
# Hybridizations were performed on the Mouse MU74Av2 GeneChip Set (Affymetrix, Santa Clara, Calif.). Samples were prepared for hybridization according to Affymetrix instructions. Briefly, a primer encoding the T7 RNA polymerase promoter linked to oligo-dT17 was used to prime double-stranded cDNA synthesis from each mRNA sample using Superscript II RNase H^− reverse transcriptase (Life Technologies, Rockville, Md.). Each purified (Qiaquick kit, Qiagen) double-stranded cDNA was in vitro transcribed using T7 RNA polymerase (T7 kit; Enzo), incorporating biotin-UTP and biotin-CTP (Enzo Biochemicals, New York, N.Y.) into the cRNAs, followed by purification using RNEasy (Qiagen) and quantitated by measuring absorption at 260 nm/280 nm. Samples were fragmented and hybridized to the Chip for 16 h at 45° C. and scanned (GeneArray scanner, Affymetrix). MicroArray Suite Version 5 (MASv5; Affymetrix) was used to scale intensities across the Genechips to 150 fluorescence units, and to determine expression values for each gene on the chip. The expression value for each gene was determined by calculating the average of differences (perfect match intensity minus mismatch intensity) of the probe pairs in use for the gene.
# Gene analysis software: Data analysis was performed using two independent softwares, GeneChip and GeneSpring. To identify differentially expressed transcripts, pairwise comparison analyses were carried out with MicroArray Suite Version 5 MicroArray Suite Version 5 (MASv5; Affymetrix). This approach, which is based on the Mann-Whitney pairwise comparison test, allows the ranking of results by concordance, as well as the calculation of significance (P value) of each identified change in gene expression. Statistically significant genes (P<0.05) were selected for further analysis. Moreover, statistically significant changes in mean expression values were determined by importing the data from MASv5 into GeneSpring 5 (Silicon Genetics, Redwood City, Calif.). A stepwise process was followed, first with normalizations. A per-chip followed by a per-gene normalization in order to facilitate direct comparison of biological differences. Next, a second method of filter using Affymetrix data and p value with cut-off of P<0.005 generated 4,841 genes which were used for subsequent analysis utilizing Hierarchical Clustering, k-means, Self Organization Map (SOM) utilizing GeneSpring 5.0.
# RNAs isolated from treated and untreated cells were analyzed on oligonucleotide arrays representing 12,884 mouse genes (Affymetrix, http://www.affymetrix.com). Standard filtering (p<0.005) and hierarchical clustering algorithm (average linage method: GeneSpring software—Silicon Genetics) identified significant changes in the expression of 4, 841/12,885 genes with 166 genes showing 1.5 fold down-regulation and 35 genes up-regulation in the TCAP-1-treated cells compared to the untreated cells. […] A G-protein coupled receptor-related signal transduction pathway is indicated by the regulation of genes, CREM, AKAP8, AKAP95 and PDE6A. […] The upregulation in inducible nitric oxide (INOS), a intracellular voltage-gated chloride channel (CLCN3) and the serotonin transporter (SLC6A4) may reflect the down stream actions of cAMP-mediated signal cascade and indicates the potential for TCAP to be involved in neuronal signaling systems. A role in interneuron communication by TCAP is also indicated by the modulation of genes associated with the regulation of vesicle trafficking. […]
# Gn11 cells [5] = assay: cAMP assay in Gn11 cells (Example 7, I); assay type: cell-based, mouse; conditions: 10^-6 M
# Procedure: (§2) Medium and peptide was removed and the cells were lysed using 350 uL of a 0.1 M HCL 0.1% Triton X-100 solution. […] All reactions were done in triplicates. Wells were set up for blanks, non-specific binding, total activity (TA), zero binding, five standards, and 12 samples. […] The plate was allowed to shake overnight. The following morning, the wells were rinsed three times with a 10 times diluted wash buffer solution. 50 uL of conjugate was added to the TA wells and 200 uL of p-Npp substrate was added to each well. The plate was covered again and incubated at room temp for one hour. At this point, 50 uL of stop solution was added to all wells and the absorbance was read at 405 nm using a Spectramax spectrophotometer. Three levels of controls were utlized: A blank tube which provides a measure of any reactivity between p-Npp substrate and IgG coated wells.; TA: measure of activity of alkaline phosphotase in conjugate, if any; NSB: measure of binding of conjugate to plate or to antibody; Bo: measure of binding conjugate to antibody (no sample and conjugate competition).
# Gn11 cells [6] = assay: cGMP assay in Gn11 cells (Example 7, I); assay type: cell-based, mouse; conditions: 10^-6 M
# Procedure: as §2
# [7] = micro injected into the basolateral amygdala, 3, 30, 300 pmoles
# [8] = 16 hours, relative to untreated control
# [9] = treated compared to untreated cells
substance,measurement,setting,value
"TCAP-1: synthetic mouse teneurin-1 C-terminal associated peptide, SEQ. ID. NO: 37 or 38, with amidation signal (QQLLGTGRVQGYDGYFVLSVEQYLELSDSANNIHFMRQSEIGRR-NH2)",acoustic startle response,rats; administration into the lateral ventricle or amygdala of rats,normalized the acoustic startle response
same,relation of effect on startle response to baseline startle response,"rats; amygdala-injected, FIG. 24",inversely proportional to the baseline startle response
same,"startle magnitude, animals with high treatment-to-baseline ratio (>1)",rats; [7],significant (p<0.05) decrease
same,"startle magnitude, animals with low treatment-to-baseline ratio (<1)",rats; [7],"significant (p, 0.05) and does dependent increase"
same,increase of cAMP levels over the vehicle-treated cells,"Gn11 cells [1]; 1 nM, 15 minutes",45%
same,cAMP accumulation at 1 nM (in words),Gn11 cells [1]; 1 nM,increased cAMP
same,cAMP accumulation at 10 nM (in words),"Gn11 cells [1]; 10 nM, FIG. 25A",without effect
same,decrease of cAMP accumulation from control cells,"Gn11 cells [1]; 100 nM, 15 minutes",40%
same,cAMP accumulation at 100 nM (in words),"Gn11 cells [1]; 100 nM, FIG. 25A",decreased (p<0.05) cAMP
same,total protein concentration,Gn11 cells [2],significant increase; also recorded: stimulated protein synthesis
same,MTT activity (mitochondrial activity) at 1 nM,Gn11 cells [3]; 1 nM,significant (p<0.05) increase; also recorded: increased MTT activity
same,MTT activity (mitochondrial activity) at 100 nM,Gn11 cells [3]; 100 nM,decrease; also recorded: decreased (p<0.05) MTT activity
same,incidence of G1 phase at 1 nM,Gn11 cells [4]; 1 nM,reduced (p<0.05) the incidence of G1 phase
same,incidence of G1 phase at 100 nM,Gn11 cells [4]; 100 nM,increased (p<0.05) G1 phase
same,Fold change AKAP8 (A kinase anchor protein 8),N38 hypothalamic cells; [8],1.58 fold
same,Fold change AKAP95 (A kinase anchor protein 95),N38 hypothalamic cells; [8],0.60 fold
same,Fold change ALK3 (Bone morphogenic protein receptor),N38 hypothalamic cells; [8],0.60 fold
same,Fold change AP4S1 (Adaptor related protein complex),N38 hypothalamic cells; [8],1.52 fold
same,Fold change ARF1 (ADP ribosylation factor 1),N38 hypothalamic cells; [8],0.63 fold
same,Fold change BARK1 (β adrenergic receptor kinase 1),N38 hypothalamic cells; [8],0.61 fold
same,Fold change BMP4 (Bone morphogenic protein-4),N38 hypothalamic cells; [8],0.52 fold
same,Fold change CAII (Casein kinase II),N38 hypothalamic cells; [8],0.61 fold
same,Fold change CAMIII (Calmodulin III),N38 hypothalamic cells; [8],0.53 fold
same,Fold change CD95 (Fas antigen),N38 hypothalamic cells; [8],0.61 fold
same,Fold change CLCN3 (Chloride channel protein 3),N38 hypothalamic cells; [8],1.66 fold
same,Fold change CLM2-B (Cytohesin-2),N38 hypothalamic cells; [8],0.63 fold
same,Fold change CRD-BP (CRD-binding protein),N38 hypothalamic cells; [8],0.59 fold
same,Fold change CREMβ1 (cAMP-responsive element modulator),N38 hypothalamic cells; [8],1.61 fold
same,Fold change DIP1/2 (DAB2 interacting protein),N38 hypothalamic cells; [8],0.68 fold
same,Fold change ERK1 (Mitogen activated protein kinase),N38 hypothalamic cells; [8],0.64 fold
same,Fold change FNBX (Ferredoxin-NADP reductase),N38 hypothalamic cells; [8],1.61 fold
same,Fold change GAS5 (Growth arrest specific transcript),N38 hypothalamic cells; [8],0.46 fold
same,Fold change GBP3 (Guanylate binding protein),N38 hypothalamic cells; [8],0.63 fold
same,Fold change GDAP10 (Ganglioside induced diff. protein 10),N38 hypothalamic cells; [8],1.62 fold
same,Fold change GP25L2 (gp25L brings cargo forward from ER),N38 hypothalamic cells; [8],1.53 fold
same,Fold change GR (Glucocorticoid receptor),N38 hypothalamic cells; [8],0.66 fold
same,Fold change IL1R (Interleukin 1 receptor),N38 hypothalamic cells; [8],0.60 fold
same,Fold change INI1B (Integrase interacting protein 1B),N38 hypothalamic cells; [8],0.48 fold
same,Fold change INOS (Inducible nitric oxide synthetase),N38 hypothalamic cells; [8],1.50 fold
same,Fold change MKI67 (Cell cycle protein regulator),N38 hypothalamic cells; [8],1.70 fold
same,Fold change MMP1 (Matrix metalloproteinase 1),N38 hypothalamic cells; [8],0.55 fold
same,Fold change MMP10 (Matrix metalloproteinase 10),N38 hypothalamic cells; [8],0.59 fold
same,Fold change MOP3 (Circadian rhythm regulator),N38 hypothalamic cells; [8],1.57 fold
same,Fold change P202 (202 interferon activatable protein),N38 hypothalamic cells; [8],0.61 fold
same,Fold change P204 (Interferon activatable protein),N38 hypothalamic cells; [8],1.85 fold
same,Fold change PCDHγ (protocadherin γ),N38 hypothalamic cells; [8],0.42 fold
same,Fold change PDE6A (cGMP Phosphodiesterase α),N38 hypothalamic cells; [8],1.68 fold
same,Fold change PPAN (Peter Pan homologue),N38 hypothalamic cells; [8],0.62 fold
same,Fold change PTK7 (Receptor protein tyrosine kinase),N38 hypothalamic cells; [8],1.53 fold
same,Fold change RAB10 (Ras oncogene homologue),N38 hypothalamic cells; [8],1.62 fold
same,Fold change SDPR (Serum deprivation response protein),N38 hypothalamic cells; [8],0.57 fold
same,Fold change SLC6A4 (Serotonin transporter),N38 hypothalamic cells; [8],1.53 fold
same,Fold change SSG1 (Steroid sensitive gene 1),N38 hypothalamic cells; [8],0.62 fold
same,Fold change ST7 (Suppressor of tumourigenicity),N38 hypothalamic cells; [8],1.97 fold
same,Fold change TTF-1IP (TTF-1 interacting peptide),N38 hypothalamic cells; [8],0.50 fold
same,Fold change YIPID (Rab-mediated membrane transport),N38 hypothalamic cells; [8],1.88 fold
same,number of genes showing 1.5 fold down-regulation,N38 hypothalamic cells; [9],166 genes
same,number of genes showing up-regulation,N38 hypothalamic cells; [9],35 genes
mouse urocortin: CRF family peptide compared with mouse TCAP-1 in Gn11 cells (DDPPLSIDLTFHLLRTLLELARTQSQRERAEQNRIIFDSV; ends and bridges not checked) [reference compound],cAMP accumulation at 1 nM (in words),Gn11 cells [1]; 1 nM,increased cAMP accumulation
"rat urocortin: CRF family peptide used for the purpose of a positive control (DDPPLSIDLTFHLLRTLLELARTQSQRERAEQNRIIFDSV; ends and bridges not checked; UniProt P55090 81-120, looked up) [reference compound]","cAMP accumulation, % of the vehicle-treated cells",Gn11 cells [5],89.2±6.3%
same,"cGMP accumulation, % of the control cells",Gn11 cells [6],50.0±8.5%
same,cGMP accumulation (in words),Gn11 cells [6]; FIG. 16B,significant (p<0.05) decrease
